# Legend:
# [1] = tested on: IPOHE (Morningglory, Ivyleaf); assay: Postemergence herbicidal evaluation; type: in vivo, Ipomoea hederacea
# How it was run: (§1)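 Young plants, roughly two weeks from seeding, receive the active ingredient as a sprayed dispersion (acetone/water 50/50, 0.5% TWEEN 20) at 40 psi. Doses span about 0.0156 to 0.500 kg/ha. A visual score from 0 to 9 compares treated with control plants four to five weeks on.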
# ECHCG (Barnyardgrass) [2] = assay: Postemergence herbicidal evaluation; type: in vivo, Echinochloa crus-galli
# How it was run: as §1
# ECHCG (Barnyardgrass) [3] = assay: Preemergence herbicidal evaluation; type: in vivo, Echinochloa crus-galli; conditions: rated 4-5 weeks after treatment
# How it was run: (§2)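 In this greenhouse assay, monocot and dicot seeds are planted in soil and treated prior to emergence with an aqueous acetone spray (about 0.0156-0.500 kg/ha). Plants are assessed visually against control on a 0-9 scale after 4-5 weeks.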
# [4] = tested on: TRZAWR (Wheat, Winter, cv Riband); assay: Postemergence herbicidal evaluation; type: in vivo, Triticum aestivum
# How it was run: as §1
# ABUTH (Velvetleaf) = assay: Postemergence herbicidal evaluation; type: in vivo, Abutilon theophrasti
# How it was run: as §1
# [5] = tested on: GLXMAW (Soybean, Williams); assay: Postemergence herbicidal evaluation; type: in vivo, Glycine max, (L.) Merr. cv Williams
# How it was run: as §1
# SETVI (Foxtail, Green) = assay: Postemergence herbicidal evaluation; type: in vivo, Setaria viridis
# How it was run: as §1
# GALAP (Galium) = assay: Preemergence herbicidal evaluation; type: in vivo, Galium aparine; conditions: rated 4-5 weeks after treatment
# How it was run: as §2
# [6] = tested on: CHEAL (Lambsquarters, Common); assay: Preemergence herbicidal evaluation; type: in vivo, Chenopodium album; conditions: rated 4-5 weeks after treatment
# How it was run: as §2
# [7] = tested on: ECHORC (Watergrass (Calif.)); assay: Postemergence weed control under flooded paddy conditions; type: in vivo, Echinochloa oryzoides; conditions: postemergence weeds, 3-4 weeks after treatment
# How it was run: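 Weeds 3 to 5 cm tall and rice seedlings at the 1.5 to 2.5 leaf stage were flooded, with water held 1.5 to 3 cm above the soil. Compounds in 50/50 v/v aqueous/acetone went into the flood water at about 0.0313 to 0.500 kg/ha. Visual 0-9 ratings versus control were made 3 to 4 weeks later.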
# ZEAMX (Corn, Field) = assay: Preemergence herbicidal evaluation; type: in vivo, Zea mays; conditions: rated 4-5 weeks after treatment
# How it was run: as §2
# CASOB (Sicklepod) = assay: Preemergence herbicidal evaluation; type: in vivo, Cassia obtusifolia; conditions: rated 4-5 weeks after treatment
# How it was run: as §2
# [8] = tested on: IPOHE (Morningglory, Ivyleaf); assay: Preemergence herbicidal evaluation; type: in vivo, Ipomoea hederacea; conditions: rated 4-5 weeks after treatment
# How it was run: as §2
# AMBEL (Ragweed, Common) = assay: Postemergence herbicidal evaluation; type: in vivo, Ambrosia artemisifolia
# How it was run: as §1
smiles,measurement,setting,value
"Cn1c(C(F)(F)F)cc(=O)n(-c2cc(N=C3SCC(=O)N3CC(=O)NS(C)(=O)=O)c(Cl)cc2F)c1=O [Compound 38, 2-{{2-Chloro-5-[3,6-dihydro-3-methyl-2,6-dioxo-4-(trifluoromethyl)-1(2H)-pyrimidinyl]-4-fluoro-phenyl}imino}-N-(methylsulfonyl)-4-oxo-3-thiazolidineacetamide]",Postemergence herbicidal rating IPOHE,[1]; Rate 0.0156 kg/ha,9.0
same,Postemergence herbicidal rating IPOHE,[1]; Rate 0.0313 kg/ha,9.0
same,Postemergence herbicidal rating IPOHE,[1]; Rate 0.0625 kg/ha,9.0
same,Postemergence herbicidal rating IPOHE,[1]; Rate 0.1250 kg/ha,9.0
same,Postemergence herbicidal rating IPOHE,[1]; Rate 0.2500 kg/ha,9.0
same,Postemergence herbicidal rating ECHCG,ECHCG (Barnyardgrass) [2]; Rate 0.0156 kg/ha,0.0
same,Postemergence herbicidal rating ECHCG,ECHCG (Barnyardgrass) [2]; Rate 0.0313 kg/ha,2.0
same,Postemergence herbicidal rating ECHCG,ECHCG (Barnyardgrass) [2]; Rate 0.0625 kg/ha,2.0
same,Postemergence herbicidal rating ECHCG,ECHCG (Barnyardgrass) [2]; Rate 0.1250 kg/ha,5.0
same,Postemergence herbicidal rating ECHCG,ECHCG (Barnyardgrass) [2]; Rate 0.2500 kg/ha,9.0
same,Preemergence herbicidal rating ECHCG,ECHCG (Barnyardgrass) [3]; rate 0.0313 kg/ha,0.0
same,Preemergence herbicidal rating ECHCG,ECHCG (Barnyardgrass) [3]; rate 0.0625 kg/ha,0.0
same,Preemergence herbicidal rating ECHCG,ECHCG (Barnyardgrass) [3]; rate 0.1250 kg/ha,0.0
same,Preemergence herbicidal rating ECHCG,ECHCG (Barnyardgrass) [3]; rate 0.2500 kg/ha,1.0
same,Postemergence herbicidal rating TRZAWR,[4]; Rate 0.0156 kg/ha,5.0
same,Postemergence herbicidal rating TRZAWR,[4]; Rate 0.0313 kg/ha,5.5
same,Postemergence herbicidal rating TRZAWR,[4]; Rate 0.0625 kg/ha,6.5
same,Postemergence herbicidal rating TRZAWR,[4]; Rate 0.1250 kg/ha,8.0
same,Postemergence herbicidal rating TRZAWR,[4]; Rate 0.2500 kg/ha,8.0
same,Postemergence herbicidal rating ABUTH,ABUTH (Velvetleaf); Rate 0.0156 kg/ha,9.0
same,Postemergence herbicidal rating ABUTH,ABUTH (Velvetleaf); Rate 0.0313 kg/ha,9.0
same,Postemergence herbicidal rating ABUTH,ABUTH (Velvetleaf); Rate 0.0625 kg/ha,9.0
same,Postemergence herbicidal rating ABUTH,ABUTH (Velvetleaf); Rate 0.1250 kg/ha,9.0
same,Postemergence herbicidal rating ABUTH,ABUTH (Velvetleaf); Rate 0.2500 kg/ha,9.0
same,Postemergence herbicidal rating GLXMAW,[5]; Rate 0.0156 kg/ha,6.5
same,Postemergence herbicidal rating GLXMAW,[5]; Rate 0.0313 kg/ha,6.5
same,Postemergence herbicidal rating GLXMAW,[5]; Rate 0.0625 kg/ha,8.0
same,Postemergence herbicidal rating GLXMAW,[5]; Rate 0.1250 kg/ha,8.5
same,Postemergence herbicidal rating GLXMAW,[5]; Rate 0.2500 kg/ha,8.5
same,Postemergence herbicidal rating SETVI,"SETVI (Foxtail, Green); Rate 0.0156 kg/ha",0.0
same,Postemergence herbicidal rating SETVI,"SETVI (Foxtail, Green); Rate 0.0313 kg/ha",3.0
same,Postemergence herbicidal rating SETVI,"SETVI (Foxtail, Green); Rate 0.0625 kg/ha",5.0
same,Postemergence herbicidal rating SETVI,"SETVI (Foxtail, Green); Rate 0.1250 kg/ha",9.0
same,Postemergence herbicidal rating SETVI,"SETVI (Foxtail, Green); Rate 0.2500 kg/ha",9.0
same,Preemergence herbicidal rating GALAP,GALAP (Galium); rate 0.0313 kg/ha,0.0
same,Preemergence herbicidal rating GALAP,GALAP (Galium); rate 0.0625 kg/ha,5.0
same,Preemergence herbicidal rating GALAP,GALAP (Galium); rate 0.1250 kg/ha,8.0
same,Preemergence herbicidal rating GALAP,GALAP (Galium); rate 0.2500 kg/ha,9.0
same,Preemergence herbicidal rating CHEAL,[6]; rate 0.0313 kg/ha,9.0
same,Preemergence herbicidal rating CHEAL,[6]; rate 0.0625 kg/ha,9.0
same,Preemergence herbicidal rating CHEAL,[6]; rate 0.1250 kg/ha,9.0
same,Preemergence herbicidal rating CHEAL,[6]; rate 0.2500 kg/ha,9.0
same,Herbicidal rating ECHORC,[7]; rate 0.0313 kg/ha,0.0
same,Herbicidal rating ECHORC,[7]; rate 0.0625 kg/ha,2.0
same,Herbicidal rating ECHORC,[7]; rate 0.1250 kg/ha,4.0
same,Herbicidal rating ECHORC,[7]; rate 0.2500 kg/ha,7.0
same,Preemergence herbicidal rating ZEAMX,"ZEAMX (Corn, Field); rate 0.0313 kg/ha",0.0
same,Preemergence herbicidal rating ZEAMX,"ZEAMX (Corn, Field); rate 0.0625 kg/ha",0.0
same,Preemergence herbicidal rating ZEAMX,"ZEAMX (Corn, Field); rate 0.1250 kg/ha",0.0
same,Preemergence herbicidal rating ZEAMX,"ZEAMX (Corn, Field); rate 0.2500 kg/ha",4.0
same,Preemergence herbicidal rating CASOB,CASOB (Sicklepod); rate 0.0313 kg/ha,0.0
same,Preemergence herbicidal rating CASOB,CASOB (Sicklepod); rate 0.0625 kg/ha,0.0
same,Preemergence herbicidal rating CASOB,CASOB (Sicklepod); rate 0.1250 kg/ha,0.0
same,Preemergence herbicidal rating CASOB,CASOB (Sicklepod); rate 0.2500 kg/ha,3.0
same,Preemergence herbicidal rating IPOHE,[8]; rate 0.0313 kg/ha,0.0
same,Preemergence herbicidal rating IPOHE,[8]; rate 0.0625 kg/ha,4.0
same,Preemergence herbicidal rating IPOHE,[8]; rate 0.1250 kg/ha,5.0
same,Preemergence herbicidal rating IPOHE,[8]; rate 0.2500 kg/ha,9.0
same,Postemergence herbicidal rating AMBEL,"AMBEL (Ragweed, Common); Rate 0.0156 kg/ha",3.0
same,Postemergence herbicidal rating AMBEL,"AMBEL (Ragweed, Common); Rate 0.0313 kg/ha",5.0
same,Postemergence herbicidal rating AMBEL,"AMBEL (Ragweed, Common); Rate 0.0625 kg/ha",5.0
same,Postemergence herbicidal rating AMBEL,"AMBEL (Ragweed, Common); Rate 0.1250 kg/ha",9.0
same,Postemergence herbicidal rating AMBEL,"AMBEL (Ragweed, Common); Rate 0.2500 kg/ha",9.0

# From patent publication US20020137929A1, “1 - (3-heterocyclylphenyl) isothiourea, -isourea, -guanidine and -amidine herbicidal agents” (Intellectual Property Department, BASF Aktiengesellschaft, priority 1998, published 2002)
